Entries after “also recorded” stand apart in the source; their conditions may differ. Read-outs that look alike come from different tables or passages of the source. *: point of attachment. Biotin = O=C1N[C@H]2[C@H](CS[C@H]2CCCCC(=O)*)N1
Experiments:
platelets [1] = assay: Effect of inhibitors on anti-GPIIIa49-66 Ab-induced platelet particle formation / oxidative fragmentation; format: cell-based, human; design: effect on Ab-induced platelet particle formation: unit of the concentration uncertain
Method: Induction of Platelet Particles. […] 1×10^7 gel-filtered platelets/ml were labelled with an anti-GPIIb-FITC monoclonal Ab (MoAb) (3B2) or an anti-GPIIIa-FITC MoAb (Ancell, Bayport, Minn.), 10 ug/ml for 30 min at 4° C., centrifuged at 1000 g×6 min at room temperature, and resuspended in Tyrodes buffer. […] (see below).
Debris and dead cells were excluded using scatter gates. Only cells with low orthogonal light scattering were included in the sorting gates. Gates were adjusted for control platelets by exclusion of other blood cells. Intact platelets were monitored in the right upper quadrant (RUQ) with the Y-axis measuring forward-scatter and the X-axis measuring fluorescence. A shift in the fluorescent particles from RUQ to LUQ reflected % platelet particle induction of 10,000 counted platelets/particles.
However, a recent report by Lerner and coworkers [19]provided evidence that Ab's in general are capable of inducing peroxide formation from an assortment of Ag's depending upon the tryptophan and cysteine composition and orientation. […] This hypothesis was tested with the use of diphenyleneiodonium (DPI), an inhibitor of NADH/NADPH oxidase, as well as other flavoprotein oxidases.

[2] = tested on: p47phox(−/−), gp91phox(−/−)KO, 12-LO(−/−)KO mouse platelets; assay: Platelet oxidation in NADPH oxidase and 12-LO KO mouse platelets; format: cell-based; details: gp91phox(−/−)KO and 12-LO(−/−)KO mouse platelets
Method: It has also been discovered that platelet oxidation/fragmentation can be induced independently of anti-GPIIIa49-66 by […] A23187, a Ca^++ ionophore, or 0.4 μM PMA, a protein kinase C activator. […] Their reactivity is inhibited by the oxidation scavengers catalase (H2O2) and DPI (diphenylene iodonium, an inhibitor of NADPH-oxidase), and is absent in NADPH oxidase p47phox(−/−), gp91phox(−/−)KO as well as 12-LO(−/−)KO mouse platelets. Thus, anti-GPIIIa49-66 could be inducing the intracellular effects of ionophore and PMA.

platelets [3] = assay: Platelet oxidation/fragmentation induced independently of anti-GPIIIa49-66 (DCHF-loaded platelets); format: cell-based
platelets [4] = assay: Ca++ flux (fura-2, AM) in activation of oxidative platelet death
platelets [5] = assay: Inhibition of HUVEC ADAMTS-18 induced platelet oxidation fragmentation; format: cell-based; details: single agent, n=7
Text: Recombinant ADAMTS-18 was then made with the expression vector pBudCE4.1 in 293T cells. This peptide induced platelet 12(S)—HETE and oxidation/fragmentation in an identical kinetic fashion as anti-GPIIIa49-66 antibody. Both expressed rADAMTS-18, and HUVEC conditioned media ADAMTS-18 could be activated by thrombin (0.5μ/mL and then neutralized with hirudin), with optimum effect at one hour (n=4). HUVEC ADAMTS-18 induced oxidation fragmentation could be inhibited about 50% by an scFV antibody raised against the ADAMTS-18 (18-mer) peptide as well as GPIIIa49-66 peptide, as well as RGDS (GPIIIa ligand binding site) (n=7).

mice = details: earlier reports [10], [14]; cited from earlier work
[6] = inhibitor at 2 (unit uncertain)
[7] = 4 Hrs, doubling concentrations from 50 uM/ml catalase and 5 uM/ml DPI, no UV/light irradiation

O=CC[C@@H](O)[C@H](O)[C@H](O)CO [2-deoxyglucose]
effect on Ab-induced platelet particle formation (platelets [1]; inhibitor at 3 (unit uncertain)): unsuccessful

CNc1ccc2oc(C[C@H]3O[C@@]4(CC[C@H]3C)O[C@H]([C@H](C)C(=O)c3ccc[nH]3)[C@H](C)C[C@H]4C)nc2c1C(=O)O [A23187, calcimycin]
reactivity (platelet oxidation) in KO mouse platelets [2]: absent | induction of platelet oxidation/fragmentation (platelets [3]): induced | oxidation of platelets loaded with the oxidative fluorochrome DCHF (platelets [3]): induce oxidation

O=C(O)CN(CC(=O)O)c1ccccc1OCCOc1ccccc1N(CC(=O)O)CC(=O)O [BAPTA]
inhibition of Ca++ flux (platelets [4]; 10 microM): completely inhibited

COc1cc2c(c(OC)c1OC)-c1ccc(OC)c(=O)cc1[C@@H](NC(C)=O)CC2 [Colchicine]
effect on Ab-induced platelet particle formation (platelets [1]; [6]): unsuccessful

c1ccc2c(c1)[I+]c1ccccc1-2 [DPI, diphenyleneiodonium]
effect of oxidation scavenger on reactivity of A23187 and PMA (platelets [3]): inhibited | effect on Ab-induced platelet particle formation (platelets [1]; [7]): inhibition; also recorded: inhibited

O=C(O)CN(CCOCCOCCN(CC(=O)O)CC(=O)O)CC(=O)O [EGTA, ethylenebis(oxyethylenenitrilo)tetraacetic acid]
inhibition of Ca++ flux (platelets [4]; 100 μM): completely inhibited

COC(=O)CC(NC(=O)OC(C)(C)C)C(=O)CF (stereo not drawn) [FK-011]
effect on Ab-induced platelet particle formation (platelets [1]; inhibitor at 100 uM): unsuccessful

CC1CNCCN1S(=O)(=O)c1cccc2cnccc12 (stereo not drawn) [H-7]
effect on Ab-induced platelet particle formation (platelets [1]; inhibitor at 40 uM): unsuccessful

[N-]=[N+]=[N-].[Na+] [NaAz]
effect on Ab-induced platelet particle formation (platelets [1]): unsuccessful

CCCCC[C@H](O)/C=C/[C@H]1[C@H](O)CC(=O)[C@@H]1CCCCCCC(=O)O [PGE1]
oxidative fragmentation/death in the presence of the agent (platelets [1]; agent at 1 μM, n=6): not induced

CCCCCCCCCCCCCC(=O)O[C@@H]1[C@@H](C)[C@@]2(O)[C@@H](C=C(CO)C[C@]3(O)C(=O)C(C)=C[C@@H]23)[C@@H]2C(C)(C)[C@]12OC(C)=O [PMA, phorbol 12-myristate 13-acetate]
reactivity (platelet oxidation) in KO mouse platelets [2]: absent | oxidation of platelets loaded with the oxidative fluorochrome DCHF (platelets [3]): induce oxidation | induction of platelet oxidation/fragmentation (platelets [3]; 0.4 μM): induced

O=S(=O)(F)Cc1ccccc1 [PMSF]
effect on Ab-induced platelet particle formation (platelets [1]; [6]): unsuccessful

Oc1ncnc2[nH]ncc12 [allopurinol]
effect on Ab-induced platelet particle formation (platelets [1]; inhibitor at 200 uM): failed to inhibit

C=C1[C@@H](C)[C@H]2[C@H](Cc3ccccc3)NC(=O)[C@]23[C@H](OC(C)=O)/C=C/[C@@](C)(O)C(=O)[C@@H](C)C/C=C/[C@H]3[C@@H]1O [cytochalasin D]
effect on Ab-induced platelet particle formation (platelets [1]; inhibitor at 10 uM): unsuccessful

COc1ccc2c(c1)c(CC(=O)O)c(C)n2C(=O)c1ccc(Cl)cc1 [indomethacin]
effect on Ab-induced platelet particle formation (platelets [1]; inhibitor at 20 uM): failed to inhibit

CC(=O)N[C@@H](CC(C)C)C(=O)N[C@@H](CC(C)C)C(=O)N[C@H](C=O)CCCNC(=N)N [leupeptin]
effect on Ab-induced platelet particle formation (platelets [1]; inhibitor at 5 ug/ml): unsuccessful

CN[C@@H]1C[C@H]2O[C@@](C)([C@@H]1OC)n1c3ccccc3c3c4c(c5c6ccccc6n2c5c31)C(=O)NC4 [staurosporine]
effect on Ab-induced platelet particle formation (platelets [1]; inhibitor at 200 uM): unsuccessful

CC[C@]1(O)C[C@@H]2CN(CCc3c([nH]c4ccccc34)[C@@](C(=O)OC)(c3cc4c(cc3OC)N(C)[C@H]3[C@@](O)(C(=O)OC)[C@H](OC(C)=O)[C@]5(CC)C=CCN6CC[C@]43[C@@H]65)C2)C1 [vinblastine]
effect on Ab-induced platelet particle formation (platelets [1]; inhibitor at 0.2 (unit uncertain)): unsuccessful

CAPESIEFPVSEARVLED [GPIIIa49-66 peptide]
inhibition of HUVEC ADAMTS-18 induced oxidation fragmentation (platelets [5]): about 50% | prevention or reversal of murine thrombocytopenia induced by anti-GPIIIa49-66 Ab (mice): prevented or reversed

RGDS
inhibition of HUVEC ADAMTS-18 induced oxidation fragmentation (platelets [5]): about 50%

bio-VQTRSVHCVQQGRPSSSC—OH (Biotin-VQTRSVHCVQQGRPSSSC-OH; cysteine pairing not given here) [18-mer peptide from the C-terminal TSP motif of ADAMTS-18, conjugated to biotin]
platelet oxidation/fragmentation (platelets [3]; peptide alone): no effect | platelet oxidation/fragmentation (platelets [3]; peptide clustered with an anti-biotin antibody, n=6): did induce oxidation/fragmentation

calpastatin
effect on Ab-induced platelet particle formation (platelets [1]; inhibitor at 100 uM): unsuccessful

catalase
effect of oxidation scavenger on reactivity of A23187 and PMA (platelets [3]): inhibited | effect on Ab-induced platelet particle formation (platelets [1]; [7]): could inhibit the reaction; also recorded: inhibited

superoxide dismutase
effect on Ab-induced platelet particle formation (platelets [1]; [7]): inhibited

B1: HUVEC conditioned media ADAMTS-18: ADAMTS-18 in HUVEC conditioned media (protein, UniProt Q8TE60 285-1221, looked up)
A disintegrin and …: SAGKSQKGLNVETLVVADKKMVEKHGKGNVTTYILTVMNMVSGLFKDGTIGSDINVVVVSLILLEQEPGGLLINHHADQSLNSFCQWQSALIGKNGKRHDHAILLTGFDICSWKNEPCDTLGFAPISGMCSKYRSCTINEDTGLGLAFTIAHESGHNFGMIHDGEGNPCRKAEGNIMSPTLTGNNGVFSWSSCSRQYLKKFLSTPQAGCLVDEPKQAGQYKYPDKLPGQIYDADTQCKWQFGAKAKLCSLGFVKDICKSLWCHRVGHRCETKFMPAAEGTVCGLSMWCRQGQCVKFGELGPRPIHGQWSAWSKWSECSRTCGGGVKFQERHCNNPKPQYGGLFCPGSSRIYQLCNINPCNENSLDFRAQQCAEYNSKPFRGWFYQWKPYTKVEEEDRCKLYCKAENFEFFFAMSGKVKDGTPCSPNKNDVCIDGVCELVGCDHELGSKAVSDACGVCKGDNSTCKFYKGLYLNQHKANEYYPVVLIPAGARSIEIQELQVSSSYLAVRSLSQKYYLTGGWSIDWPGEFPFAGTTFEYQRSFNRPERLYAPGPTNETLVFEILMQGKNPGIAWKYALPKVMNGTPPATKRPAYTWSIVQSECSVSCGGGYINVKAICLRDQNTQVNSSFCSAKTKPVTEPKICNAFSCPAYWMPGEWSTCSKACAGGQQSRKIQCVQKKPFQKEEAVLHSLCPVSTPTQVQACNSHACPPQWSLGPWSQCSKTCGRGVRKRELLCKGSAAETLPESQCTSLPRPELQEGCVLGRCPKNSRLQWVASSWSECSATCGLGVRKREMKCSEKGFQGKLITFPERRCRNIKKPNLDLEETCNRRACPAHPVYNMVAGWYSLPWQQCTVTCGGGVQTRSVHCVQQGRPSSSCLLHQKPPVLRACNTNFCPAPEKREDPSCVDFFNWCHLVPQHGVCNHKFYGKQCCKSCTRKI
modifications: natural, HUVEC conditioned media
notes: ADAMTS-18 in HUVEC conditioned media
time of optimum effect of activation by thrombin (platelets [3]; thrombin 0.5μ/mL, then neutralized with hirudin, n=4): one

Source: patent US20070009529A1, “Agents that dissolve arterial thrombi” (New York University, priority 2002, published 2007)
